Experiment [1] deals with human iPSC-derived microglia. Nature of the experiment: Cytokine release assay in LPS-stimulated iPSC-derived microglia. The note with it: 20 μM, panel of 36 cytokines, p<0.05. Format: cell-based. On the procedure: Cytokine release assay. […] Subsequently, media cleared of cells and debris was collected, snap-frozen and stored at −80° C. until processing with the Human Cytokine Array kit (R&D Systems, Catalog #ARY005). Briefly, media was diluted in Array Buffer 4 and incubated with a cocktail of biotinylated detection antibodies for 1 h at room temperature with rocking. The resulting immunocomplexes were incubated with nitrocellulose membranes spotted with capture antibodies overnight at 4° C. (see below for full list of targets). The membranes were washed 4× with Wash Buffer, then incubated with IRDye 800CW Streptavidin for 30 minutes at room temperature (1:2000 in Array Buffer 5, LI-COR #926-32230). The membranes were washed 4× and imaged with an Odyssey CLx instrument. Intensity for each spot was quantified with ImageStudio. Technical duplicate values for each target were averaged, and differential cytokine release by microglia exposed to LPS+vehicle versus vehicle only was determined (n=2 biological replicates, two-tailed t-tests, P<0.05).

In experiment [2] the test system is NF-κB. Nature of the experiment: NF-κB-Luciferase reporter assay in THP-1 NF-κB-Lucia cells. Format: cell-based, human. On the procedure: NF-κB-Luciferase reporter assay. THP-1 NF-κB-Lucia cells were plated at 10,000 cells per well with 10 ng/mL PMA. Three days later, media was removed and replaced with media containing LPS (1 μg/mL) and dilution series of compounds in flat bottom clear 96-well plates for 24 hours. A day later, 20 μL of media was transferred to a 96-well white plate and 50 μL of QuantiLuc Gold reagent (InvivoGen rep-qlcg5) was added per well; plate was mixed in the plate reader and luminescence was read using a Promega GloMax Reader.

In experiment [3] the target is CK2α1 (Homo sapiens, UniProt P68400). Nature of the experiment: Thermal shift assay followed by Western blotting. The class given is binding. The note with it: astrocyte lysates. Set-up: endogenous in cells. As to the method: Thermal shift assay and TPP. Experiments were performed as previously described (Franken et al., Nature Protocols 2015, 10:1567-1593; Reinhard et al., Nature Methods 2015, 12:1129-1131). 45 million H1-derived astrocytes were activated with 10 ng/mL IL1b for 6 h, dissociated with 1:1 Accutase/papain (3 min rt), and centrifuged at 1,800 rpm for 2 min at 4 C. The pellet was washed twice with 10 mL cold DPBS, lysed in 2.25 mL DPBS and 0.4% v/v NP-40 by freeze-thawing 3×, and clarified by centrifugation (20,000 g, 30 min, 4° C.). Protein concentration was determined by BCA assay (Bio-Rad), and lysates were diluted to 2 mg/mL. […] Reactions were incubated at rt for 30 min, after which each treated extract was divided into 10 aliquots of 95 μL in PCR strip tubes and stored on ice. Each group of treated samples was heated for 3 min at predesignated temperatures (3×10 temperatures), then kept for 3 min at rt before ultracentrifugation (20 min at 4° C., 100,000 g) in 200 μL polycarbonate tubes (Beckman Coulter #343775). Designated temperatures were 37, 41.1, 43.6, 46.9, 50, 53.7, 56, 59.5, 63, and 67° C. A small aliquot (5 μL) of supernatant was saved for Western blotting, and the rest was snap frozen at −80 C and submitted for LC-MS/MS.
Chain of CK2α1 (P68400 whole entry): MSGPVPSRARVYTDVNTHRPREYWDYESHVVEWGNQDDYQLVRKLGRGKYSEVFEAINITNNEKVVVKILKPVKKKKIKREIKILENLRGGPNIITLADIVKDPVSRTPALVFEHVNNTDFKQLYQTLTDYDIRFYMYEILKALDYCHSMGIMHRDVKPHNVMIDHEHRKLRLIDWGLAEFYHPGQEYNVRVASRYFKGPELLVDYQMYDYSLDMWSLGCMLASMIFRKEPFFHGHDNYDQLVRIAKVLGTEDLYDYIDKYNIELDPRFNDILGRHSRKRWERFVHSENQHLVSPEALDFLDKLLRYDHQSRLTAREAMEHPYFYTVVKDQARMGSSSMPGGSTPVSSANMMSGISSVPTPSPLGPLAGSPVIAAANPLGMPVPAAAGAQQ

Experiment [4] has as its system microglial phagocytosis. Nature of the experiment: Microglial phagocytosis assay (pHrodo E. coli beads). Format: cell-based, human. The note with it: 20 μM, P=0.0015. As to the method:
Phagocytosis assay. […] (2-3 biological replicates). Then, 0.5 μL of pHrodo E. Coli-FITC beads (Thermo Fisher, P35366) was added per well with gentle mixing and the cells were incubated for another 4 hours. pHrodo beads only fluoresce when they are internalized in cells. Cells were then collected by scraping, washed with FACS buffer (1×DPBS, 2% BSA, and 0.05 mM EDTA pH 8.0), and counter-stained with Zombie Violet to assess viability. Live cells were analyzed on the FACS Canto instrument for geometric mean fluorescence on the FITC channel. The background FITC fluorescence value (pHrodo beads only) was subtracted from each mean, and fold-change was computed across experimental groups.

The test system of experiment [5] is phosphorylated NF-κB. Nature of the experiment: pNF-κB immunoblot in AD patient-derived astrocytes. As to conditions: 5 h treatment. Format: cell-based, human. On the technique in general: In western blotting, separated proteins are transferred to a membrane and probed.

Regarding `COc1cc(-c2cc(=O)c3c(O)cc(O)cc3o2)ccc1O` [CHR, Chrysoeriol], the “Release of LPS-induced pro-inflammatory cytokines” value in experiment [1] is listed as “significantly blocked”. Besides, the IC50 in experiment [2] (Homo sapiens, THP-1, FIG. 5B, read-out: IC50 in THP-1 monocyte NF-κB-Luciferase reporter cells) is less than 4 µM. The “SAR summary: activity in NF-κB reporter assay and for CK2 kinase inhibition” value in experiment [2] (at 20 μM, FIG. 5A, some values sourced from Baier et al. (2017) and Lolli et al. (2012)) is recorded as “active”. In addition, the “Thermal stabilization of CK2α1” value in experiment [3] was “dose-dependently stabilized”. In addition, in experiment [4], the “Microglial phagocytosis of pHrodo E. coli beads” value was “blocked”. For the same compound, the “Elevated phosphorylated NF-κB in AD astrocytes” value in experiment [5] is reported as “reduced”.

A word on the IC50: it is the concentration that inhibits the measured activity by half.

(Values after patent US20260199350A1, “FLAVONES, QUINOLINONES, QUINAZOLINONES, AND AURONES, AND USES IN CK2-MEDIATED DISEASES” (Salk Institute for Biological Studies, priority 2022, published 2026).)
